Experimental data published in PMC5398096 (Bioorganic & medicinal chemistry letters, 2017).
Where two headings read alike, the source gives them in different places.

Experiments:
A431 cancer cells [1] = settings: read-out: A431 Cytotoxicity IC50; previously evaluated lead compounds; cited from earlier work
human DHFR = target: T1, human DHFR (Homo sapiens, UniProt P00374); settings: number in parentheses; at the concentration stated in the same cell (μM); cited from earlier work
T1 sequence (P00374 1-187): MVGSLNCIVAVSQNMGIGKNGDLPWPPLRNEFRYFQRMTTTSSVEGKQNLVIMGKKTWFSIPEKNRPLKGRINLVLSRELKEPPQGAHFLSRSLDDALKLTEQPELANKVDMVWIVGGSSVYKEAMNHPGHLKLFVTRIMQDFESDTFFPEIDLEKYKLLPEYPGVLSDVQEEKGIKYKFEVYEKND

COLO-205 xenograft = COLO-205 xenograft mouse model, cited from earlier work
E. coli DHFR [2] = target: T2, E. coli DHFR (Escherichia coli, UniProt P0ABQ4); settings: number in parentheses; at the concentration stated in the same cell (μM); cited from earlier work
E. coli TS = E. coli TS (Escherichia coli, UniProt P0A884); test: Thymidylate synthase; type: biochemical; settings: number in parentheses; at the concentration stated in the same cell (μM)
VEGFR-2 (Flk-1) = VEGFR-2 (Flk-1) (Homo sapiens, UniProt P35968); test: VEGFR-2 kinase inhibition, phosphotyrosine ELISA in whole cells; type: cell-based; settings: for VEGFR-2 assay: fold less potent than semaxanib: relative to standard semaxanib
PDGFR-β = PDGFR-β (Homo sapiens, UniProt P09619); test: PDGFR-β kinase inhibition, phosphotyrosine ELISA in whole cells; type: cell-based; settings: for PDGFR-β assay: fold less active than DMBI: relative to standard DMBI; for PDGFR-β assay: activity in words: even at 200 micromolar concentrations
EGFR = EGFR (Homo sapiens, UniProt P00533); test: EGFR kinase inhibition, phosphotyrosine ELISA in whole cells; type: cell-based; settings: relative to standard 24
A431 cancer cells [3] = test: A431 cytotoxicity; type: cell-based, human; settings: for A431 cytotoxicity assay: fold less active than cisplatin: relative to standard cisplatin
human TS = human TS (Homo sapiens, UniProt P04818); test: Thymidylate synthase; type: biochemical; settings: relative to raltitrexed (RTX)
E. coli DHFR [4] = target: T2, E. coli DHFR; test: Dihydrofolate reductase; type: biochemical; settings: number in parentheses; at the concentration stated in the same cell (μM)

Sequence of EGFR (P00533 25-1210): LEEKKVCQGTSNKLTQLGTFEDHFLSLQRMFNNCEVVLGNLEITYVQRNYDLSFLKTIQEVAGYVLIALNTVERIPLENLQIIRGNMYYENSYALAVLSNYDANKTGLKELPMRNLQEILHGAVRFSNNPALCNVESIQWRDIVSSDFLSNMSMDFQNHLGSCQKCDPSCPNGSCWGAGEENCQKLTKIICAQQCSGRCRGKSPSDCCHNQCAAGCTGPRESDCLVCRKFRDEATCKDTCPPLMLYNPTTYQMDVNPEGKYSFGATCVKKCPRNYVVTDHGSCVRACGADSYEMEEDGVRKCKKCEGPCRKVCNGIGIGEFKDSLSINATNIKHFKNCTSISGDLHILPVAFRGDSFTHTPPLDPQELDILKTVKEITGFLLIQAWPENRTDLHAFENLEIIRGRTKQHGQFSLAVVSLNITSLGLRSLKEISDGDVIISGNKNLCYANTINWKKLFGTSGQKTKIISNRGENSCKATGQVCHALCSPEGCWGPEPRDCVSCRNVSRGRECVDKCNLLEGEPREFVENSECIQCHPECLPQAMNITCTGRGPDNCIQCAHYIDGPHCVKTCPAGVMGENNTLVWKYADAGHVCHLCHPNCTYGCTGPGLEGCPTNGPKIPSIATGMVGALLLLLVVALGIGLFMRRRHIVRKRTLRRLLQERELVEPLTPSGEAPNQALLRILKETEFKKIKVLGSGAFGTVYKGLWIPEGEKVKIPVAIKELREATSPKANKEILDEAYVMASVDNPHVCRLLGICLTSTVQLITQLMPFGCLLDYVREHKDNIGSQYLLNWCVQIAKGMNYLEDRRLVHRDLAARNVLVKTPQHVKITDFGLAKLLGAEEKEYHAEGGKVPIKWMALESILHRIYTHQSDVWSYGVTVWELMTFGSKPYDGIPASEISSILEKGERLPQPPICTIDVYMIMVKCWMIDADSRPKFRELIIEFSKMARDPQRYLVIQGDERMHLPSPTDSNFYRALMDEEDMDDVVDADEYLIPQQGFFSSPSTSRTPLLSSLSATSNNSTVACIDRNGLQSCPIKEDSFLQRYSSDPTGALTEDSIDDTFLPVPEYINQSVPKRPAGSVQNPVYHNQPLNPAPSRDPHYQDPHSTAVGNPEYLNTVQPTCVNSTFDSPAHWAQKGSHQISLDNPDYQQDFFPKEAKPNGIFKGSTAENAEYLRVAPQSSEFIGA
Sequence of VEGFR-2 (Flk-1) (P35968 20-1356): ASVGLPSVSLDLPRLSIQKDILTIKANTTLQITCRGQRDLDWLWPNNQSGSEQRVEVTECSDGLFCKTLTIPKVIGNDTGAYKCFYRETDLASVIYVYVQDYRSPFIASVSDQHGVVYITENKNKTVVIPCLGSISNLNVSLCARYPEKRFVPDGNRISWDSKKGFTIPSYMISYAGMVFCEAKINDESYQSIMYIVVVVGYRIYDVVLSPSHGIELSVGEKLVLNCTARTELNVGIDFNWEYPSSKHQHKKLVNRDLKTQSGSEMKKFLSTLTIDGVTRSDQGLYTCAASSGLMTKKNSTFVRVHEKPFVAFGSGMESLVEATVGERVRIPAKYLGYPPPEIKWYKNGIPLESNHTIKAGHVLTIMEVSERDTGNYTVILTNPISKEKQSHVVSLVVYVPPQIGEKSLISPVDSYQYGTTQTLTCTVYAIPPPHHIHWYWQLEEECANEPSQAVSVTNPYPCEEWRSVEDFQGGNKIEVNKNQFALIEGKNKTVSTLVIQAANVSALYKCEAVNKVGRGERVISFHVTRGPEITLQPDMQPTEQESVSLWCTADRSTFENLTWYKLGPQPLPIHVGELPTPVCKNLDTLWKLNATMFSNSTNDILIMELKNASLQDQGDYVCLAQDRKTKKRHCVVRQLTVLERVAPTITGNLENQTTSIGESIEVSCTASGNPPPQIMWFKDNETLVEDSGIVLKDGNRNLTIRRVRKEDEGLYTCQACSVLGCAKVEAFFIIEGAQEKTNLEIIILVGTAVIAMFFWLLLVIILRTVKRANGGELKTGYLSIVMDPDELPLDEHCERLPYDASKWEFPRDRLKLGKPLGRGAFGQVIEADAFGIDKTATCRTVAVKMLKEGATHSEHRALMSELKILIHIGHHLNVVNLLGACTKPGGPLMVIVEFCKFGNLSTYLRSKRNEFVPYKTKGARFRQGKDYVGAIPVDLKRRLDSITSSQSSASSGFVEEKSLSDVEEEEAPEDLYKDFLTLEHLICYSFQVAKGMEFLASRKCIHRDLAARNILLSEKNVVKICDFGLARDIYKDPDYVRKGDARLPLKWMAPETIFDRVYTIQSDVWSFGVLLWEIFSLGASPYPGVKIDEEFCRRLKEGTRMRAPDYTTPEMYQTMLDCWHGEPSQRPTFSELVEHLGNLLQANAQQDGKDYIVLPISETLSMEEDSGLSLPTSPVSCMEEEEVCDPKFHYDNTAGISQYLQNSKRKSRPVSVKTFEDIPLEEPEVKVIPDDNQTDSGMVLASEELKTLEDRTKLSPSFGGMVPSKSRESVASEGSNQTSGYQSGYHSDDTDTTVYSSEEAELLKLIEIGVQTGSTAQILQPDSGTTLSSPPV
Sequence of PDGFR-β (P09619 33-1106): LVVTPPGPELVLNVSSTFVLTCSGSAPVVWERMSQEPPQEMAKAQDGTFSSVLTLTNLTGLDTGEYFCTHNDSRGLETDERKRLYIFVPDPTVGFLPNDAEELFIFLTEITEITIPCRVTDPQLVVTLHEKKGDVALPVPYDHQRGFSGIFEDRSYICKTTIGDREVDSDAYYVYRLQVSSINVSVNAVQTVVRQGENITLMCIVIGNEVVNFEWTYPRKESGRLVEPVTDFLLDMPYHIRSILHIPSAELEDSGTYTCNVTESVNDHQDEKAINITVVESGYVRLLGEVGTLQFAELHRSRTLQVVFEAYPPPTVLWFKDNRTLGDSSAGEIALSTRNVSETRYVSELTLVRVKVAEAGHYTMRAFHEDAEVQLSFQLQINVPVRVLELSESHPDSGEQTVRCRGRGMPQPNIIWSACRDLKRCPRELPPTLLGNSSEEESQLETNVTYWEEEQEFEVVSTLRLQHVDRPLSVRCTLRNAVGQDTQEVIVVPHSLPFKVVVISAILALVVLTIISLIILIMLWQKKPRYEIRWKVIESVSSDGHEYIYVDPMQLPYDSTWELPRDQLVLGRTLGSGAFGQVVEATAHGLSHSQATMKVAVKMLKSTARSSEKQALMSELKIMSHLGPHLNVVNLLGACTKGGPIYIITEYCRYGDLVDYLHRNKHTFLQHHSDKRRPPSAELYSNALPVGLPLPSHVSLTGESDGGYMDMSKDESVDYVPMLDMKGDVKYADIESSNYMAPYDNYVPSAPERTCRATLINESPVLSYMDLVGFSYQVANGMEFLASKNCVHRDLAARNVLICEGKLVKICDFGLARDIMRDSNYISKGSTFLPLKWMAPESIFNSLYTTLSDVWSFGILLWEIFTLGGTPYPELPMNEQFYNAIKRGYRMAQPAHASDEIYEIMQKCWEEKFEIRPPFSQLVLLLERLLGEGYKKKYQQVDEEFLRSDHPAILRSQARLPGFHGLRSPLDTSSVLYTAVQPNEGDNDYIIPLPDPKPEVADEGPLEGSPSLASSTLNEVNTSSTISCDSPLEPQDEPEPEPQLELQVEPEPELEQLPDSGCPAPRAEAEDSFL
T2 sequence (P0ABQ4 whole entry): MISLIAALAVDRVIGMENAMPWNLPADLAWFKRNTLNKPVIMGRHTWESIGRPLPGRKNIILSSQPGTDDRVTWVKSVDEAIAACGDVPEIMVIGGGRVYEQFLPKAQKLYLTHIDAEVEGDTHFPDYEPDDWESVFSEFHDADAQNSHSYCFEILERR
Sequence of human TS (P04818 whole entry): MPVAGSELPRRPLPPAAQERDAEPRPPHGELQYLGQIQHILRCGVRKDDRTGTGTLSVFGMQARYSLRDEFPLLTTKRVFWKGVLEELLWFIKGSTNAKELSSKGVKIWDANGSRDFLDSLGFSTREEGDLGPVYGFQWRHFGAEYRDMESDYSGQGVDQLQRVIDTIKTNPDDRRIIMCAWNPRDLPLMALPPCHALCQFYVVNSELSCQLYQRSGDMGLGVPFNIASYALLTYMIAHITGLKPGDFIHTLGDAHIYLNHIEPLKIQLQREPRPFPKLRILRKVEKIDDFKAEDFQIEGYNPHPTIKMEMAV
Sequence of E. coli TS (P0A884 whole entry): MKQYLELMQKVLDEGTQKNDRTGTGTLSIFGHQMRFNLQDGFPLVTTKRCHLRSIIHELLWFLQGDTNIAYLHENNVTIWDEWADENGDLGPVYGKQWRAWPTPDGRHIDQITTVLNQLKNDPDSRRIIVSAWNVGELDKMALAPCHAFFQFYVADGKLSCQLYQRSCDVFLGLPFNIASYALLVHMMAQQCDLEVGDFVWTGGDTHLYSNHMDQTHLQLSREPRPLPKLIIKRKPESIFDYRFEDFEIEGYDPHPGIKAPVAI

SMILES: Nc1nc(N)c2c(n1)[nH]c1cccc(Sc3ccccc3)c12 [Compound 1]
- IC50 (A431 cancer cells [1]): 49.2 ± 4.7 µM
- DHFR Human, percent inhibition at the stated concentration (human DHFR): 17%
- tumor growth inhibition (TGI) (COLO-205 xenograft; 35 mg/kg): 76%
- liver metastases (COLO-205 xenograft; compared with DMBI and control): significantly decreased
- tumor blood vessels (COLO-205 xenograft; compared with DMBI and control): significantly decreased
- DHFR E. coli, percent inhibition at the stated concentration (E. coli DHFR [2]): 35%

SMILES: Cc1ccc(Sc2cccc3[nH]c4nc(N)nc(N)c4c23)cc1 [Compound 2]
- IC50 (A431 cancer cells [1]): 14.1 ± 2 µM
- DHFR Human, percent inhibition at the stated concentration (human DHFR): 7%
- DHFR E. coli, percent inhibition at the stated concentration (E. coli DHFR [2]): 27%

SMILES: Nc1nc(N)c2c(n1)[nH]c1cccc(Sc3ccc4ccccc4c3)c12 [Compound 3]
- TS E. coli, percent inhibition at the stated concentration (E. coli TS): 0%
- VEGFR-2 assay: fold less potent than semaxanib (VEGFR-2 (Flk-1)): 13 fold
- PDGFR-β assay: fold less active than DMBI (PDGFR-β): 24 fold
- EGFR assay: fold less active than standard 24 (EGFR): 100 fold
- A431 cytotoxicity assay: fold less active than cisplatin (A431 cancer cells [3]): about 4 fold

SMILES: Nc1nc(N)c2c(n1)[nH]c1cccc(Sc3cccc4ccccc34)c12 [Compound 4]
- VEGFR-2 assay: fold less potent than semaxanib (VEGFR-2 (Flk-1)): 16 fold
- PDGFR-β assay: fold less active than DMBI (PDGFR-β): about 16 fold
- hTS assay: fold less active than RTX (human TS): 6 fold
- EGFR assay: fold less active than standard 24 (EGFR): 835 fold
- A431 cytotoxicity assay: activity in words (A431 cancer cells [3]; even at 200 micromolar concentration): inactive

SMILES: COc1ccc(OC)c(Sc2cccc3[nH]c4nc(N)nc(N)c4c23)c1 [Compound 5]
- DHFR E. coli, percent inhibition at the stated concentration (E. coli DHFR [4]): 0%
- VEGFR-2 assay: fold less potent than semaxanib (VEGFR-2 (Flk-1)): equipotent
- PDGFR-β assay: activity in words (PDGFR-β): inactive
- hTS assay: fold less active than RTX (human TS): 3 fold
- EGFR assay: fold less active than standard 24 (EGFR): 22 fold
- A431 cytotoxicity assay: fold less active than cisplatin (A431 cancer cells [3]): about 4 fold

SMILES: COc1ccc(Sc2cccc3[nH]c4nc(N)nc(N)c4c23)cc1 [Compound 6]
- TS E. coli, percent inhibition at the stated concentration (E. coli TS): 0%
- VEGFR-2 assay: fold less potent than semaxanib (VEGFR-2 (Flk-1)): 15 fold
- PDGFR-β assay: fold less active than DMBI (PDGFR-β): about 16 fold
- EGFR assay: fold less active than standard 24 (EGFR): about 100 fold
- A431 cytotoxicity assay: fold less active than cisplatin (A431 cancer cells [3]): about 6 fold

SMILES: Nc1nc(N)c2c(n1)[nH]c1cccc(Sc3ccc(Cl)cc3)c12 [Compound 7]
- DHFR E. coli, percent inhibition at the stated concentration (E. coli DHFR [4]): 0%
- VEGFR-2 assay: activity in words (VEGFR-2 (Flk-1)): inactive
- PDGFR-β assay: activity in words (PDGFR-β): inactive
- hTS assay: fold more potent than RTX (human TS): equipotent
- EGFR assay: fold less active than standard 24 (EGFR): 40 fold
- A431 cytotoxicity assay: fold less active than cisplatin (A431 cancer cells [3]): equipotent
